This passage reports IC50 results from patent US20220220128A1, “HETEROCYCLIC COMPOUNDS AS KINASE INHIBITORS, COMPOSITIONS COMPRISING THE HETEROCYCLIC COMPOUND, AND METHODS OF USE THEREOF” (JS Innopharm (Shanghai) Ltd, priority 2019, published 2022).

Molecules are shown by their SMILES.

One test concerns TT cells. Put plainly: TT Cell Proliferation Assay (WST-8, 8 days). It is filed as cell-based. Particulars: Homo sapiens, TT, 192 h, growth inhibition in TT cells, read-out: TT Cellular Activity. In outline:
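TT cells, 6,000/well in RPMI-1640 with 10% FBS, attached 24 h, then exposed to compound at 5 μM down to 0.0005 μM final (0.5% DMSO) for 8 days at 37 °C. WST-8 added for 5 h, absorbance at 450 nm. IC50 calculated from the dilution series.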

For a further test, the target named is T1, human KDR kinase (Homo sapiens, UniProt P35968).
T1 construct: purchased Carna 08-191
Put plainly: KDR Kinase Assay (LanthaScreen TR-FRET enzymatic assay). It counts as biochemical. Particulars: 1.2 nM KDR, 92 μM ATP. The procedure, abridged: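 Recombinant human KDR (1.2 nM) preincubated 15 min at room temperature with compound, then reacted with 3 μM FAM-P22 peptide and 92 μM ATP in 50 mM HEPES pH 7.5 for 1 h at 28° C. EDTA stop, then TR-FRET acceptor/donor ratio read; percent of 1% DMSO control fitted sigmoidally for IC50.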
Background: Time-resolved FRET reads energy transfer from a long-lived donor to a nearby acceptor.

The target of a further test is T2, human RET kinase (Homo sapiens, UniProt P07949).
T2 construct: purchased Carna 08-159
Put plainly: RET Kinase Assay (LanthaScreen TR-FRET enzymatic assay). Particulars: 7 nM RET, 23 μM ATP. It is filed as biochemical. In outline:
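Human RET (7 nM) preincubated 15 min with compound in 50 mM HEPES pH 7.5, 0.0015% Brij-35, then reacted with 3 μM FAM-P2 peptide and 23 μM ATP for 1 h at 28° C.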

T1 sequence (P35968 20-1356): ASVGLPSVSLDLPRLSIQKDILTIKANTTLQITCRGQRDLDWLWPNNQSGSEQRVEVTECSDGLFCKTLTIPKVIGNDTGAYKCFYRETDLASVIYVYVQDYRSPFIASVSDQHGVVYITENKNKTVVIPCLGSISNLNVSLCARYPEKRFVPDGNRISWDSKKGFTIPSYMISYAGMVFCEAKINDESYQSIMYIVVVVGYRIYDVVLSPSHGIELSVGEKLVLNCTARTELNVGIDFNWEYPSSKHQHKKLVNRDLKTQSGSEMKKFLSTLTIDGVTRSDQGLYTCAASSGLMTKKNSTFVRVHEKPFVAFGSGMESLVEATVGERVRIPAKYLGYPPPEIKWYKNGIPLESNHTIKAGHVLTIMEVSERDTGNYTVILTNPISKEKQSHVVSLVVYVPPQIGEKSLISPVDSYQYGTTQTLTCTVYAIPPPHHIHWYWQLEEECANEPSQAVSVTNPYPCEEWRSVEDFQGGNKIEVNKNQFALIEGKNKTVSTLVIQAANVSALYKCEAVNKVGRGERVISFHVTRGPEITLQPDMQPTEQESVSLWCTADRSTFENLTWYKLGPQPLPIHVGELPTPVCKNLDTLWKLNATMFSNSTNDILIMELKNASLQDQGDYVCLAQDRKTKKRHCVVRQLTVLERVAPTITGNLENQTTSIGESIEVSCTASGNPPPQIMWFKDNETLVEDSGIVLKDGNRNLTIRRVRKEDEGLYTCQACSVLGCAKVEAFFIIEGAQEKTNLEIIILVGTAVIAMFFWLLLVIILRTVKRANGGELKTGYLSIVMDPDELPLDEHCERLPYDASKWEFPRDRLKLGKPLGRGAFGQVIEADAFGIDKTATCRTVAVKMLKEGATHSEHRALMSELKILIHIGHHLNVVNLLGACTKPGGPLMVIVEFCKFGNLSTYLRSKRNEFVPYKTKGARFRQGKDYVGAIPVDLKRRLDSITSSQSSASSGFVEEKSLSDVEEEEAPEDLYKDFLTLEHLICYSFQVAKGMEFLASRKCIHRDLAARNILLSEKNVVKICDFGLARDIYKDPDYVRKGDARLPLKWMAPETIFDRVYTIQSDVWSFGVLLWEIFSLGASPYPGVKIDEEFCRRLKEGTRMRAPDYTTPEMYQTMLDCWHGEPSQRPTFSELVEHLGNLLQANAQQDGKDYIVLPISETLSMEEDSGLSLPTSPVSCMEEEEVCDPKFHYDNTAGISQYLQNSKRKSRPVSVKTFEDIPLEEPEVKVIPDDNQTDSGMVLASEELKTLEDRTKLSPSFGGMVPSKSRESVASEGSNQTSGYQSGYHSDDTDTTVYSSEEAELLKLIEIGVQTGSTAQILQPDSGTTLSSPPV
T2 sequence (P07949 29-1114): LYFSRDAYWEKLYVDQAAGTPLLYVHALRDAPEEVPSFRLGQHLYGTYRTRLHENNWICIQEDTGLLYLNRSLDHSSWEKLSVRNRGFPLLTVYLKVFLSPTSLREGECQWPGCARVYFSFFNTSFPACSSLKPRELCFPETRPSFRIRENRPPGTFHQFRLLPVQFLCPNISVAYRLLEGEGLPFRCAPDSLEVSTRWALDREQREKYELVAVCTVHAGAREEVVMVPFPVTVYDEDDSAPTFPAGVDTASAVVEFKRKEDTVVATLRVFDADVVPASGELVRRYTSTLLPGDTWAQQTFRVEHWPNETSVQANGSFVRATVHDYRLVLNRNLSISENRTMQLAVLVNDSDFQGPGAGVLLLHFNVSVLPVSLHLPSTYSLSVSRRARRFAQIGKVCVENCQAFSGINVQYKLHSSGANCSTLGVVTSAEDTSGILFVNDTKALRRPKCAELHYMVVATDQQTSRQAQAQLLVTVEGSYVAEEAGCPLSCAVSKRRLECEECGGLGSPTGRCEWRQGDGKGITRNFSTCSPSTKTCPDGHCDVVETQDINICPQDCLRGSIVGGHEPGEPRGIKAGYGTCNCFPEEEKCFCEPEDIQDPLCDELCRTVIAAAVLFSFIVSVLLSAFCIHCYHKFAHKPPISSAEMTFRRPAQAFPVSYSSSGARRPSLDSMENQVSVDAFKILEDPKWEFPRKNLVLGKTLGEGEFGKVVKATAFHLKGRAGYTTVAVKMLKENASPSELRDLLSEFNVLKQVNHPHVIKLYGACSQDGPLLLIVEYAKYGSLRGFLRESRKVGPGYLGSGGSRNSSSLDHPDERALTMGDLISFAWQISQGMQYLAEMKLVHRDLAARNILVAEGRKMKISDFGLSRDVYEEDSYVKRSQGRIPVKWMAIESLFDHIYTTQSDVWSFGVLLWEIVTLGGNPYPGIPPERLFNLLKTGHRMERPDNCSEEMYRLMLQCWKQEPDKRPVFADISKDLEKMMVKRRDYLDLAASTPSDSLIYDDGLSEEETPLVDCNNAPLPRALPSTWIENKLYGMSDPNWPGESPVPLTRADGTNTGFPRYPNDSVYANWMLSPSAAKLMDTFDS

Take `Cn1cc(-c2cc(-c3ccc(N4C[C@@H]5[C@H](C4)[C@@H]5NS(=O)(=O)c4c(F)cccc4Cl)nc3)c3c(C#N)cnn3c2)cn1` [Example 35, 2-chloro-N-((1R,5S,6r)-3-(5-(3-cyano-6-(1-methyl-1H-pyrazol-4-yl)pyrazolo[1,5-a]pyridin-4-yl)pyridin-2-yl)-3-azabicyclo[3.1.0]hexan-6-yl)-6-fluorobenzenesulfonamide]: the IC50 was 10 to 50 nM in the test on TT cells, 10 to 50 nM against human KDR kinase and at most 10 nM at human RET kinase.
Take `Cn1cc(-c2cc(-c3ccc(N4C[C@@H]5[C@H](C4)[C@@H]5NC(=O)Nc4ccccc4)nc3)c3c(C#N)cnn3c2)cn1` [Example 36, 1-((1R,5S,6r)-3-(5-(3-cyano-6-(1-methyl-1H-pyrazol-4-yl)pyrazolo[1,5-a]pyridin-4-yl)pyridin-2-yl)-3-azabicyclo[3.1.0]hexan-6-yl)-3-phenylurea]: the IC50 is 10 to 50 nM in the test with TT cells, at most 10 nM at human KDR kinase and at most 10 nM at human RET kinase.
`COc1cc(-c2ccc(N3C[C@@H]4[C@H](C3)[C@H]4NC(=O)c3ncccc3Cl)nc2)c2c(C#N)cnn2c1` [Example 39, 3-chloro-N-((1R,5S,6s)-3-(5-(3-cyano-6-methoxypyrazolo[1,5-a]pyridin-4-yl)pyridin-2-yl)-3-azabicyclo[3.1.0]hexan-6-yl)picolinamide]: the IC50 with TT cells is over 100 nM; at human KDR kinase, over 100 nM; on human RET kinase it was 50 to 100 nM.
`CC(C)(O)COc1cc(-c2ccc(N3C[C@@H]4[C@H](C3)[C@H]4NC(=O)[C@H](O)c3ccccc3)nc2)c2c(C#N)cnn2c1` [Example 40, (R)-N-((1R,5S,6s)-3-(5-(3-cyano-6-(2-hydroxy-2-methylpropoxy)pyrazolo[1,5-a]pyridin-4-yl)pyridin-2-yl)-3-azabicyclo[3.1.0]hexan-6-yl)-2-hydroxy-2-phenylacetamide]: the IC50 was 50 to 100 nM with TT cells, over 100 nM against human KDR kinase and 10 to 50 nM against human RET kinase.
The matching figures for `CCOc1cc(-c2cnc(N3C[C@@H]4[C@H](C3)[C@@H]4NC(=O)c3ncccc3Cl)cn2)c2c(C#N)cnn2c1` [Example 41, 3-chloro-N-((1R,5S,6r)-3-(5-(3-cyano-6-ethoxypyrazolo[1,5-a]pyridin-4-yl)pyrazin-2-yl)-3-azabicyclo[3.1.0]hexan-6-yl)picolinamide]: over 100 nM, over 100 nM and over 100 nM.
The corresponding values for `CCOc1cc(-c2cnc(N3C[C@@H]4[C@H](C3)[C@H]4NC(=O)c3ncccc3Cl)cn2)c2c(C#N)cnn2c1` [Example 42, 3-chloro-N-((1R,5S,6s)-3-(5-(3-cyano-6-ethoxypyrazolo[1,5-a]pyridin-4-yl)pyrazin-2-yl)-3-azabicyclo[3.1.0]hexan-6-yl)picolinamide] are over 100 nM, over 100 nM and 50 to 100 nM.
Take `CC(C)(O)COc1cc(-c2ccc(N3C[C@@H]4[C@H](C3)[C@@H]4NC(=O)c3ncccc3Cl)nc2)c2c(C#N)cnn2c1` [Example 44, 3-chloro-N-((1R,5S,6r)-3-(5-(3-cyano-6-(2-hydroxy-2-methylpropoxy)pyrazolo[1,5-a]pyridin-4-yl)pyridin-2-yl)-3-azabicyclo[3.1.0]hexan-6-yl)picolinamide]: the IC50 was over 100 nM with TT cells, over 100 nM against human KDR kinase and 50 to 100 nM at human RET kinase.
`COc1ccc(NC(=O)N[C@H]2[C@@H]3CN(c4ccc(-c5cc(-c6cnn(C)c6)cn6ncc(C#N)c56)cn4)C[C@@H]32)cn1` [Example 45, 1-((1R,5S,6s)-3-(5-(3-cyano-6-(1-methyl-1H-pyrazol-4-yl)pyrazolo[1,5-a]pyridin-4-yl)pyridin-2-yl)-3-azabicyclo[3.1.0]hexan-6-yl)-3-(6-methoxypyridin-3-yl)urea]: the results for the IC50 in the test on TT cells, on human KDR kinase and against human RET kinase were 50 to 100 nM, at most 10 nM and at most 10 nM, respectively.
Take `CC(C)(O)COc1cc(-c2ccc(N3C[C@@H]4[C@H](C3)[C@H]4NS(=O)(=O)c3c(F)cccc3Cl)nc2)c2c(C#N)cnn2c1` [Example 47, 2-chloro-N-((1R,5S,6s)-3-(5-(3-cyano-6-(2-hydroxy-2-methylpropoxy)pyrazolo[1,5-a]pyridin-4-yl)pyridin-2-yl)-3-azabicyclo[3.1.0]hexan-6-yl)-6-fluorobenzene-sulfonamide]: the IC50 was 10 to 50 nM in the test with TT cells, 10 to 50 nM on human KDR kinase and at most 10 nM against human RET kinase.
With `CCOc1cc(-c2cnc(N3C[C@H]4C[C@H](NC(=O)c5ncccc5Cl)C[C@H]4C3)cn2)c2c(C#N)cnn2c1` [Example 50, 3-chloro-N-((3aR,5s,6aS)-2-(5-(3-cyano-6-ethoxypyrazolo[1,5-a]pyridin-4-yl)pyrazin-2-yl)octahydrocyclopenta[c]pyrrol-5-yl)picolinamide], the IC50 in the test with TT cells was 10 to 50 nM; at human KDR kinase, over 100 nM; on human RET kinase it was at most 10 nM.
For `COc1cc(-c2ccc(N3C[C@@H]4C[C@@](C)(NC(=O)c5ncccc5Cl)C[C@@H]4C3)nc2)c2c(C#N)cnn2c1` [Example 52, 3-chloro-N-((3aR,5s,6aS)-2-(5-(3-cyano-6-methoxypyrazolo[1,5-a]pyridin-4-yl)pyridin-2-yl)-5-methyloctahydro-cyclopenta[c]pyrrol-5-yl)picolinamide], the IC50 in the test on TT cells was 10 to 50 nM; against human KDR kinase it was 50 to 100 nM; on human RET kinase, at most 10 nM.
The matching figures for `Cn1cc(-c2cc(-c3ccc(N4C[C@@H]5C[C@@](C)(NC(=O)c6c(F)cccc6Cl)C[C@@H]5C4)nc3)c3c(C#N)cnn3c2)cn1` [Example 57, 2-chloro-N-((3aR,5s,6aS)-2-(5-(3-cyano-6-(1-methyl-1H-pyrazol-4-yl)pyrazolo[1,5-a]pyridin-4-yl)pyridin-2-yl)-5-methyloctahydro-cyclopenta[c]pyrrol-5-yl)-6-fluorobenzamide]: at most 10 nM, over 100 nM and 10 to 50 nM.
`COc1ccc(C(=O)N[C@]2(C)C[C@H]3CN(c4ccc(-c5cc(-c6cnn(C)c6)cn6ncc(C#N)c56)cn4)C[C@H]3C2)cn1` [Example 58, N-((3aR,5s,6aS)-2-(5-(3-cyano-6-(1-methyl-1H-pyrazol-4-yl)pyrazolo[1,5-a]pyridin-4-yl)pyridin-2-yl)-5-methyloctahydro-cyclopenta[c]pyrrol-5-yl)-6-methoxy-nicotinamide]: the IC50 is 10 to 50 nM in the test on TT cells, at most 10 nM on human KDR kinase and at most 10 nM against human RET kinase.
For `Cn1cc(-c2cc(-c3ccc(N4C[C@@H]5C[C@@](C)(NS(=O)(=O)c6c(F)cccc6Cl)C[C@@H]5C4)nc3)c3c(C#N)cnn3c2)cn1` [Example 59, 2-chloro-N-((3aR,5s,6aS)-2-(5-(3-cyano-6-(1-methyl-1H-pyrazol-4-yl)pyrazolo[1,5-a]pyridin-4-yl)pyridin-2-yl)-5-methyloctahydrocyclopenta[c]pyrrol-5-yl)-6-fluorobenzenesulfonamide], the IC50 with TT cells, against human KDR kinase and at human RET kinase was at most 10 nM each time.
For the compound `CCOc1cc(-c2cnc(N3C[C@@H]4C[C@@](C)(NC(=O)c5ncccc5Cl)C[C@@H]4C3)cn2)c2c(C#N)cnn2c1` [Example 60, 3-chloro-N-((3aR,5s,6aS)-2-(5-(3-cyano-6-ethoxypyrazolo[1,5-a]pyridin-4-yl)pyrazin-2-yl)-5-methyloctahydrocyclopenta[c]pyrrol-5-yl)picolinamide], the IC50 is 10 to 50 nM in the test with TT cells, over 100 nM at human KDR kinase and at most 10 nM on human RET kinase.
For the compound `CCOc1cc(-c2ccc(N3C[C@@H]4C[C@@](C)(NC(=O)CC(C)C)C[C@@H]4C3)nc2)c2c(C#N)cnn2c1` [Example 62, N-((3aR,5s,6aS)-2-(5-(3-cyano-6-ethoxypyrazolo[1,5-a]pyridin-4-yl)pyridin-2-yl)-5-methyloctahydrocyclopenta[c]pyrrol-5-yl)-3-methylbutanamide], the IC50 was 10 to 50 nM with TT cells, 50 to 100 nM against human KDR kinase and at most 10 nM on human RET kinase.
Regarding `CCOc1cc(-c2ccc(N3C[C@@H]4C[C@@](C)(NC(=O)c5c(C)cccc5Cl)C[C@@H]4C3)nc2)c2c(C#N)cnn2c1` [Example 63, 2-chloro-N-((3aR,5s,6aS)-2-(5-(3-cyano-6-ethoxypyrazolo[1,5-a]pyridin-4-yl)pyridin-2-yl)-5-methyloctahydrocyclopenta[c]pyrrol-5-yl)-6-methylbenzainide], the IC50 with TT cells is 10 to 50 nM; against human KDR kinase it was 50 to 100 nM; against human RET kinase it was at most 10 nM.
Regarding `CCOc1cc(-c2ccc(N3C[C@@H]4C[C@@](C)(NC(=O)c5ncc(F)cc5Cl)C[C@@H]4C3)nc2)c2c(C#N)cnn2c1` [Example 64, 3-chloro-N-((3aR,5s,6aS)-2-(5-(3-cyano-6-ethoxypyrazolo[1,5-a]pyridin-4-yl)pyridin-2-yl)-5-methyloctahydrocyclopenta[c]pyrrol-5-yl)-5-fluoropicolinamide], the IC50 is 50 to 100 nM with TT cells, 10 to 50 nM against human KDR kinase and at most 10 nM against human RET kinase.
